Results reported in patent US20170049786A1, “MTOR PATHWAY INHIBITORS FOR TREATING OCULAR DISORDERS” (Santen Pharmaceutical Co., Ltd., priority 2009, published 2017).
Several values for one entry are separate records, joined by “and”; a condition that tells them apart may be missing. Equal entries are not always repeated. Where two headings read alike, the source gives them in different places.

Tests used:
[1] = tested on: Human umbilical vein endothelial cells (HUVEC); assay: Inhibition of VEGF-induced proliferation, BrdU incorporation; format: cell-based; details: for IC50: Homo sapiens, 12.5 ng/mL VEGF
Procedure: The objective of this study was to evaluate the anti-proliferative effects of various therapeutic agents (everolimus, sirolimus, tacrolimus, temsirolimus, zotarolimus, PP242, PP30, Palomid 529, WYE-354, and KU-0063794) by measuring bromodeoxyuridine (BrdU) incorporation into cellular DNA. The therapeutic agents were dissolved directly into class A vials in less than 1% DMSO. Human umbilical vein endothelial cells (HUVEC) were obtained from Lonza (Catalog No. CC-2517). Vascular endothelial growth factor (VEGF) was obtained from R&D Systems (Catalog No. 293-VE-010). A BrdU Assay kit was obtained from Calbiochem (Catalog No. Q1A58). The inhibitory effect of rapamycin on HUVEC proliferation has been described (Kwon et al., Invest Opththamol Vis Sci, 46:454-4699, 2005).
Early passage HUVEC were plated at 2,000 cells/well in 96-well plates for 24 hours. The cells were then starved for 24 hours by replacing medium with medium lacking serum and HUVEC medium growth factors. After overnight starvation, wells were inoculated with (i) medium containing 2.5% serum and 12.5 ng/mL VEGF, (ii) medium with 12.5 ng/mL VEGF, (iii) medium with 2.5% serum or (iv) medium without serum or VEGF. Control compounds and test compounds were added at eight to eleven concentrations of each compound. All wells were set up in four replicates. BrdU was added to the medium 72 hours after feeding. After the overnight labeling, the cells were assayed according the manufacturers instructions and the plates were read at OD450. Average absorbance for replicate wells was used to calculate IC50 for the compounds of Table 72-1.

[2] = cited from earlier work
[3] = Solubility profiles of therapeutic agents (Table 71-1); details: for physical state when formulated in PEG400: 3% therapeutic agent and 97% PEG400
Procedure: Various therapeutic agents (e.g., rapalogs and/or mTOR inhibitors) were formulated as liquid solutions or suspensions for ophthalmic administration by injection. The therapeutic agents of exemplary formulations were as follows: everolimus, sirolimus, temsirolimus, zotarolimus, PP242, PP30 and palomid 529.
Liquid formulations containing 3% therapeutic agent (everolimus, sirolimus, temsirolimus or zotarolimus) and 97% PEG400 were prepared.

in vivo = details: rabbit
Procedure: Both eyes (or one eye depending on the study) of each animal received one or two drops (40 μl per drop) of the studied formulations using a calibrated pipette on day 0 (day of dosing).
For Tables 3-6, the solution of Example 46 (formulation #340) was administered two drops twice a day on both eyes, one time for Group I, two drops once a day on one eye, one time for Group II, and two drops once a day on both eyes for 6 days in Group III. In Group II, the right eye (OD) but not the left eye (OS) received eye drops. In a further study, one drop of the formulation #340 (40 μL containing 880 μg rapamycin) was administered on day zero.
For FIGS. 5 and 6, the aqueous rapamycin-containing formulations #329 and #330 of Table 1 were administered two drops once or twice a day for up to 28 days. For FIGS. 7 and 8, the aqueous rapamycin-containing formulations #331 and #332 of Table 1 were administered two drops twice a day for 6 days.
For FIG. 10A-B one drop of an aqueous or a non-aqueous formulation containing about 0.2% rapamycin were administered to both eyes of rabbit subjects once a day for six days (day 0 to day 6). As used herein, the terms “aqueous” and “hydrophilic” refer to formulations in which the dominant component is an aqueous compound such as water (e.g., formulations #342 and #342 of Table 1), while the terms “non-aqueous” and “lipophilic” refer to formulation in which the dominant component is a non-aqueous compound such as PEG 400 (e.g., formulations #344 and #345 of Table 1). Rapamycin concentrations in the cornea, retina choroid and blood were measured at day 7 and day 14.
For FIG. 11 one drop of a non-aqueous formulation containing about 0.2% rapamycin (e.g., formulations #344 or #345) was administered to both eyes of rabbit subjects once a day on day 0, 7, 14 and 21. Rapamycin concentrations in the cornea, retina choroid and aqueous humor were measured on days 3, 10, 17, 24 and 28.

[4] = Pilot pharmacokinetic study, intravitreal injection of rapalog/mTOR inhibitor formulations; concentration in the vitreous (FIGS. 17, 19, 20); details: 330 mcg by intravitreal injection of 10 μl of 3% agent in 97% PEG400; FIG. 17
Procedure: In a pilot pharmacokinetic study, 330 mcg of the therapeutic agent was administered to rabbits by intravitreal injection of a 10 μl volume.
In a pilot pharmacokinetic study, 220 mcg of the therapeutic agent was administered to rabbits by intravitreal injection of a 10 μl volume.

[5] = tested on: retinal and choroidal neovascularization (RNV and CNV); assay: Inhibition of retinal and choroidal neovascularization in vivo (subretinal […]/bFGF/VEGF model, fluorescein angiography); design: species or system New Zealand white rabbits; details: six microliter intravitreal dose of 2% agent in 4% ethanol, 94% PEG400 on Day 8; compared with 50 microliter AVASTIN (25 mg/ml)
Procedure: The objective of this study was to evaluate the effects of various therapeutic agents (everolimus, sirolimus, temsirolimus, and zotarolimus) on retinal and choroidal neovascularization (RNV and CNV) in a rabbit model (Qiu et al., Exp Eye Res, 83:141-152, 2006). Liquid formulations containing 2% (w/w) of the therapeutic agents were prepared in 4% (w/w) ethanol, and 94% (w/w) PEG400. As a positive control, a formulation containing 25 mg/ml AVASTIN was used. As a negative control, vehicle (4% ethanol, 96% PEG400) was used. Recombinant human basic fibroblast growth factor (bFGF) and vascular endothelial growth factor (VEGF) were obtained from R&D Systems. New Zealand white rabbits were used in this study.
On Day 1, the right eye of each animal received a subretinal injection of 10-20 μL of […] containing 10 μg/0.1 mL b-FGF and 2 μg/0.1 mL VEGF. […]-containing formulations are kept on ice until administered. Briefly, the conjunctiva was opened and a small slit in the sclera was made to expose the vitreous. A cannula connected to a tuberculin syringe was inserted into the subretinal space and the […]/growth factor combination was delivered. The scleral and conjunctival opening were closed with a 7-0 Vicryl suture. […]

COc1ccc(COc2cc3oc(=O)c4cc(C(C)O)ccc4c3cc2OC)cc1 (stereo not shown) [palomid 529, 8-(1-hydroxy-ethyl)-2-methoxy-3-(4-methoxy-benzyloxy)-benzo[c]chromen-6-one]
potency as inhibitor of VEGF-induced proliferation relative to the other compounds tested [1]: less potent inhibitors of VEGF-induced proliferation than the other compounds tested

CO[C@H]1C[C@@H]2CC[C@@H](C)[C@@](O)(O2)C(=O)C(=O)N2CCCC[C@H]2C(=O)O[C@H]([C@H](C)C[C@@H]2CC[C@@H](OC(=O)C(C)(CO)CO)[C@H](OC)C2)CC(=O)[C@H](C)/C=C(\C)[C@@H](O)[C@@H](OC)C(=O)[C@H](C)C[C@H](C)/C=C/C=C/C=C/1C [temsirolimus]
IC50 [1]: 0.0159 µM
Solubility, Aqueous ([2]; literature values): 10 to 20 µg/mL
Solubility, DMSO ([2]; literature values): >200 mg/mL
Solubility, Ethanol ([2]; literature values): >200 mg/mL

C=CC[C@@H]1/C=C(\C)C[C@H](C)C[C@H](OC)[C@H]2O[C@@](O)(C(=O)C(=O)N3CCCC[C@H]3C(=O)O[C@H](/C(C)=C/[C@@H]3CC[C@@H](O)[C@H](OC)C3)[C@H](C)[C@@H](O)CC1=O)[C@H](C)C[C@@H]2OC [tacrolimus]
potency as inhibitor of VEGF-induced proliferation relative to the other compounds tested [1]: less potent inhibitors of VEGF-induced proliferation than the other compounds tested
IC50 [1]: 324 µM

CO[C@H]1C[C@@H]2CC[C@@H](C)[C@@](O)(O2)C(=O)C(=O)N2CCCC[C@H]2C(=O)O[C@H]([C@H](C)C[C@@H]2CC[C@@H](OCCO)[C@H](OC)C2)CC(=O)[C@H](C)/C=C(\C)[C@@H](O)[C@@H](OC)C(=O)[C@H](C)C[C@H](C)/C=C/C=C/C=C/1C [everolimus]
IC50 [1]: 0.0225 µM
Solubility, Aqueous ([2]; literature values): 1 to 10.0 µg/mL
Solubility, DMSO ([2]; literature values): >100 mg/mL
Solubility, Ethanol ([2]; literature values): >100 mg/mL
Solubility, PEG 400 [3]: >624 mg/g
physical state when formulated in PEG400 [3]: went into solution

CO[C@H]1C[C@@H]2CC[C@@H](C)[C@@](O)(O2)C(=O)C(=O)N2CCCC[C@H]2C(=O)O[C@H]([C@H](C)C[C@@H]2CC[C@@H](O)[C@H](OC)C2)CC(=O)[C@H](C)/C=C(\C)[C@@H](O)[C@@H](OC)C(=O)[C@H](C)C[C@H](C)/C=C/C=C/C=C/1C [sirolimus, rapamycin]
Rapamycin level, Blood (in vivo; 1 day): 2.84 ng/mL
Rapamycin level, Blood (in vivo; 3 day): 27.29 ng/mL
concentration at 1 day (in vivo; Rapamycin level, Blood): 0.00463 µg/mL
concentration at 3 day (in vivo; Rapamycin level, Blood): 0.0371 µg/mL
concentration at 8 day (in vivo; Rapamycin level, Blood): 0.0155 µg/mL
concentration at 10 day (in vivo; Rapamycin level, Blood): 0.00767 µg/mL
concentration at 12 day (in vivo; Rapamycin level, Blood): 0.00288 µg/mL
concentration at 14 day (in vivo; Rapamycin level, Blood): 0.0483 µg/mL
concentration at 8 day (in vivo; Rapamycin level, Cornea): 169 ng/g
concentration at 10 day (in vivo; Rapamycin level, Cornea): 110 ng/g
concentration at 12 day (in vivo; Rapamycin level, Cornea): 97.9 ng/g
concentration at 14 day (in vivo; Rapamycin level, Cornea): 84.2 ng/g
IC50 [1]: 0.0295 µM
Solubility, Ethanol ([2]; literature value): >90 mg/g
Solubility, Aqueous ([2]; literature values): 1 to 2.6 µg/mL
Solubility, DMSO [3]: >472 mg/g
Solubility, PEG 400 [3]: 3 mg/g
physical state when formulated in PEG400 [3]: suspension
concentration remaining in the vitreous after a single injection [4]: Sustained concentrations

CC(C)n1nc(-c2cccc(C(=O)NC3=NCCS3)c2)c2c(N)ncnc21 [PP30]
Solubility, PEG 400 [3]: >13 mg/g and <22 mg/g

CC(C)n1nc(-c2cc3cc(O)ccc3[nH]2)c2c(N)ncnc21 [PP242, 2-(4-Amino-1-isopropyl-1H-pyrazolo[3,4-d]pyrimidin-3-yl)-1H-indol-5-ol]
Solubility, PEG 400 [3]: >126 mg/g

CO[C@H]1C[C@@H]2CC[C@@H](C)[C@@](O)(O2)C(=O)C(=O)N2CCCC[C@H]2C(=O)O[C@H]([C@H](C)C[C@@H]2CC[C@H](n3cnnn3)[C@H](OC)C2)CC(=O)[C@H](C)/C=C(\C)[C@@H](O)[C@@H](OC)C(=O)[C@H](C)C[C@H](C)/C=C/C=C/C=C/1C [zotarolimus]
IC50 [1]: 0.00178 µM
inhibition of neovascular disease (fluorescein angiography grading) [5]: inhibited neovascular disease to a greater extent than a 50 microliter dose of AVASTIN
Solubility, DMSO ([2]; literature values): >1 mg/mL
Solubility, Ethanol ([2]; literature values): >100 mg/mL
Solubility, Aqueous ([2]; pH 6.5, literature value): 0.47 mcg/ml* pH 6.5
Solubility, Aqueous ([2]; pH 7.4, literature value): 0.53 mcg/ml* pH 7.4
